Laboratory results as given in US20250051355A1, “COMPOUNDS, COMPOSITIONS, AND METHODS” (ACONCAGUA BIO, INC., priority 2023, published 2025).

Target: human calcitonin receptor (CTR) and RAMP3 (AMY3) (Homo sapiens, UniProt O60896+P30988)
Experiment: Amylin Receptor cAMP Assay I
Format: cell-based
Settings: COS-7/AMY3 cells, cAMP Hi-range Kit, read-out: Amylin Receptor cAMP Stimulation Activity: EC50
Text: Amylin Receptor cAMP Assay I
AMYRs are heterodimers of the class B calcitonin (CT) G-protein-coupled receptor (CTR) and receptor activity-modifying proteins (RAMPs). All three RAMPs can interact with the CTR and form AMY1, AMY2, AMY3 with RAMP1, RAMP2 and RAMP3, respectively. Like other class B1 GPCRs, the CT receptor family is canonically coupled to Gs-mediated cAMP production, and measurement of cAMP accumulation has been the primary assay used to determine peptide selectivity and potency.
To optimize functional activity directed toward Gas coupling, COS-7 cells were stably transfected with human calcitonin receptor (CTR) and RAMP3, simultaneously. 100×concentration of compound working solutions were prepared (Agilent Technologies Bravo) with 4-fold serial dilution in 384-well Echo LDV plate (Labcyte, Cat #LP-0200). 100 nL/well 100× concentration of compound working solutions were moved to 384-well white low volume plate (Greiner, Cat #784075) using Labcyte ECHO550. 1×10^5 cells/mL COS-7/CTR or COS-7/AMY3 (HD Biosciences) cell suspensions prepared with assay buffer [DPBS containing 0.5 mM IBMX (Sigma, Cat #15879) and 0.1% BSA (GENVIEW, Cat #FAO16-100 g)], 10 μL cell suspensions were added to each well of previous generated assay plate which already contains 100 nL compound at 100× concentration using ThermoFisher Multidrop Combi (1000 cells/well). Seal the plate and incubate at 37° C. with 5% CO2 for 30 min.
After incubation, the cAMP assay signal was generated using cAMP Hi-range Kit (Cisbio). 5 μL cAMP-d2 working solution was added to each well, followed by 5 μL Anti-cAMP antibody-cryptate working solution which was added to each well using ThermoFisher Multidrop Combi. The samples were then incubated at room temperature for 1 hour protected from light. the fluorescence was read at 665 and 615 nm with Reader PerkinElmer EnVision.

human calcitonin receptor (CTR) and RAMP3 (AMY3), sequence (O60896 24-148): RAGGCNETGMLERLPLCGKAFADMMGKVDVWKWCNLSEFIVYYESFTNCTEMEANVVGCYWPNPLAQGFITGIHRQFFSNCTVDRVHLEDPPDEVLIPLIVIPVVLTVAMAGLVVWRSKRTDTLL
human calcitonin receptor (CTR) and RAMP3 (AMY3), sequence (P30988 25-474): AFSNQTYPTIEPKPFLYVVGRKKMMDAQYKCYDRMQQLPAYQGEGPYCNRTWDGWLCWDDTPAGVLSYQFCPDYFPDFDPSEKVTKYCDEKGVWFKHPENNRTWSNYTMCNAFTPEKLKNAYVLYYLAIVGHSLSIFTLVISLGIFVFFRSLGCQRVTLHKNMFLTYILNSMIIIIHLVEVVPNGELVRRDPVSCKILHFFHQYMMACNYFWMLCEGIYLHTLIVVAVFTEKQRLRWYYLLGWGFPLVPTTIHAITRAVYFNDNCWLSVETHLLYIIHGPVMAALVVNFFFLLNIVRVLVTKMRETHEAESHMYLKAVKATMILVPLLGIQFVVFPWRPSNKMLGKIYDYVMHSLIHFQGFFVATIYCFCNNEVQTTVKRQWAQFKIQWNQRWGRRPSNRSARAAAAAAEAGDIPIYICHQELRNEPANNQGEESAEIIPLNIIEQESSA

Compound	EC50 [nM]
Cc1nnc(-c2c(COc3ccc(F)cc3)nc3c(c2-c2ccc(C(=O)N[C@@H]4CCc5ncccc54)s2)C(=O)N2CCC[C@@H]32)o1 [Compound 32, N—[(R)-4-aza-1-indanyl]-5-{(2S)-11-[(p-fluorophenoxy)methyl]-10-(5-methyl-1,3,4-oxadiazol-2-yl)-7-oxo-6,12-diazatricyclo[6.4.0.0^2,6]dodeca-1(8),9,11-trien-9-yl}-2-thenamide]	728
Cc1nnc(-c2c(CCOC(C)C)nc3c(c2-c2ccc(C(=O)NCc4ccc(F)c(F)c4)s2)C(=O)N2CCC[C@@H]32)o1 [Compound 35, (S)—N-(3,4-difluorobenzyl)-5-(2-(2-isopropoxyethyl)-3-(5-methyl-1,3,4-oxadiazol-2-yl)-5-oxo-7,8,9,9a-tetrahydro-5H-pyrido[2,3-a]pyrrolizin-4-yl)thiophene-2-carboxamide]	> 100
Cc1nnc(-c2c(CCc3cnn(C)c3)nc3c(c2-c2ccc(C(=O)NCc4ccc(F)c(F)c4)s2)C(=O)N2CCC[C@@H]32)o1 [Compound 43, (S)—N-(3,4-difluorobenzyl)-5-(3-(5-methyl-1,3,4-oxadiazol-2-yl)-2-(2-(1-methyl-1H-pyrazol-4-yl)ethyl)-5-oxo-7,8,9,9a-tetrahydro-5H-pyrido[2,3-a]pyrrolizin-4-yl)thiophene-2-carboxamide]	1880
Cc1nnc(-c2c(CC3(c4ccc(F)cc4)CC3)nc3c(c2-c2ccc(C(=O)NCc4ccc(F)c(F)c4)s2)C(=O)N2CCC[C@@H]32)o1 [Compound 49, (S)—N-(3,4-difluorobenzyl)-5-(2-((1-(4-fluorophenyl)cyclopropyl)methyl)-3-(5-methyl-1,3,4-oxadiazol-2-yl)-5-oxo-7,8,9,9a-tetrahydro-5H-pyrido[2,3-a]pyrrolizin-4-yl)thiophene-2-carboxamide]	382
Cc1nnc(-c2c(CCc3ccc(F)cc3)nc3c(c2-c2ccc(C(=O)NCc4ccc(F)c(F)c4)s2)C(=O)N2CC[C@H](O)[C@@H]32)o1 [Compound 50, N-(3,4-difluorobenzyl)-5-((9S,9aR)-2-(4-fluorophenethyl)-9-hydroxy-3-(5-methyl-1,3,4-oxadiazol-2-yl)-5-oxo-7,8,9,9a-tetrahydro-5H-pyrido[2,3-a]pyrrolizin-4-yl)thiophene-2-carboxamide]	129
Cc1nnc(-c2c(CC(O)c3ccc(F)cc3)nc3c(c2-c2ccc(C(=O)N[C@@H]4CCc5ccccc54)s2)C(=O)N2CCC[C@@H]32)o1 (stereo partly drawn) [Compound 51, N-[(1R)-2,3-dihydro-1H-indenyl]-5-[(9aS)-2-[2-(4-fluorophenyl)-2-hydroxyethyl]-3-(5-methyl-1,3,4-oxadiazol-2-yl)-5-oxo-7,8,9,9a-tetrahydro-5H-pyrido[2,3-a]pyrrolizin-4-yl]thiophene-2-carboxamide]	551
Cc1nnc(-c2c(CC(F)c3ccc(F)cc3)nc3c(c2-c2ccc(C(=O)N[C@@H]4CCc5ccccc54)s2)C(=O)N2CCC[C@@H]32)o1 (stereo partly shown) [Compound 52]	126
Cc1cnc(-c2c(CCC3CCOCC3)nc3c(c2-c2ccc(C(=O)NCc4ccc(F)c(F)c4)s2)C(=O)N2CCC[C@@H]32)o1 [Compound 57]	113
Cc1nnc(-c2c(CCC3CCOC(C)(C)C3)nc3c(c2-c2ccc(C(=O)NCc4ccc(F)c(F)c4)s2)C(=O)N2CCC[C@@H]32)o1 (stereo partly drawn) [Compound 66, N-(3,4-difluorobenzyl)-5-((9aS)-2-(2-(2,2-dimethyltetrahydro-2H-pyran-4-yl)ethyl)-3-(5-methyl-1,3,4-oxadiazol-2-yl)-5-oxo-7,8,9,9a-tetrahydro-5H-pyrido[2,3-a]pyrrolizin-4-yl)thiophene-2-carboxamide]	975
Cc1nnc(-c2c(CCC3CCOCC3)nc3c(c2-c2cc4ccnc(N[C@@H]5CCc6ccc(F)cc65)c4s2)C(=O)N2CCC[C@@H]32)o1 [Compound 72]	81.4
COc1cccc(CNc2nccc3cc(-c4c5c(nc(CCC6CCOCC6)c4-c4nnc(C)o4)[C@@H]4CCCN4C5=O)sc23)c1 [Compound 73]	2200
CO[C@H]1C[C@@H](Nc2nccc3cc(-c4c5c(nc(CCC6CCOCC6)c4-c4nnc(C)o4)[C@@H]4CCCN4C5=O)sc23)c2ccccc21 [Compound 74]	860
Cc1cnc(-c2c(CCC3CCOCC3)nc3c(c2-c2cc4ccnc(NCc5cncc(F)c5)c4s2)C(=O)N2CCC[C@@H]32)o1 [Compound 75]	360
CCc1nc2c(c(-c3ccc(C(=O)N[C@@H]4CCc5cc(F)ccc54)s3)c1-c1nnc(C)o1)C(=O)N1CCC[C@@H]21 [Compound 82, N—[(R)-5-fluoro-1-indanyl]-5-((2S)-11-ethyl-10-(5-methyl-1,3,4-oxadiazol-2-yl)-7-oxo-6,12-diazatricyclo[6.4.0.0^2,6]dodeca-1(8),9,11-trien-9-yl}-2-thenamide]	1810
COc1cccc2c1CC[C@H]2Nc1nccc2cc(-c3c4c(nc(CCC5CCOCC5)c3-c3nnc(C)o3)[C@@H]3CCCN3C4=O)sc12 [Compound 83, (2S,6R)-9-(7-[(R)-4-methoxy-1-indanylamino]-1-thia-6-aza-2-indenyl}-10-(5-methyl-1,3,4-oxadiazol-2-yl)-11-[2-(tetrahydro-2H-pyran-4-yl)ethyl]-6,12-diazatricyclo[6.4.0.0^2,6,]dodeca-1(8), 9,11-trien-7-one]	59

Now those with a lower EC50, led by results:

EC50 [nM]	Compound
41.2	Cc1ncoc1-c1c(CCc2ccc(F)cc2)nc2c(c1-c1ccc(C(=O)NCc3ccc(F)c(F)c3)s1)C(=O)N1CCC[C@@H]21 [Compound 31, (S)—N-(3,4-difluorobenzyl)-5-(2-(4-fluorophenethyl)-3-(4-methyloxazol-5-yl)-5-oxo-7,8,9,9a-tetrahydro-5H-pyrido[2,3-a]pyrrolizin-4-yl)thiophene-2-carboxamide]
52.5	Cc1ncoc1-c1c(CCc2ccc(F)cc2)nc2c(c1-c1ccc(C(=O)NCc3ccc(F)c(F)c3)s1)S(=O)(=O)N1CCC[C@@H]21 [Compound 33, (S)—N-(3,4-difluorobenzyl)-5-(2-(4-fluorophenethyl)-3-(4-methyloxazol-5-yl)-5,5-dioxido-7,8,9,9a-tetrahydropyrrolo[1′,2′:2,3]isothiazolo[4,5-b]pyridin-4-yl)thiophene-2-carboxamide]
20.5	Cc1nc(C)c(-c2c(CCc3ccc(F)cc3)nc3c(c2-c2ccc(C(=O)NCc4ccc(F)c(F)c4)s2)C(=O)N2CCC[C@@H]32)o1 [Compound 34, (S)—N-(3,4-difluorobenzyl)-5-(3-(2,4-dimethyloxazol-5-yl)-2-(4-fluorophenethyl)-5-oxo-7,8,9,9a-tetrahydro-5H-pyrido[2,3-a]pyrrolizin-4-yl)thiophene-2-carboxamide]
20.2	Cc1nnc(-c2c(CCc3ccc(F)cc3)nc3c(c2-c2cc4ccnc(NCc5ccc(F)c(F)c5)c4s2)C(=O)N2CCC[C@@H]32)o1 [Compound 40, (S)-4-(7-((3,4-difluorobenzyl)amino)thieno[2,3-c]pyridin-2-yl)-2-(4-fluorophenethyl)-3-(5-methyl-1,3,4-oxadiazol-2-yl)-7,8,9,9a-tetrahydro-5H-pyrido[2,3-a]pyrrolizin-5-one]
22.8	Cc1cnc(-c2c(CCc3ccc(F)cc3)nc3c(c2-c2cc4ccnc(NCc5ccc(F)c(F)c5)c4s2)C(=O)N2CCC[C@@H]32)o1 [Compound 41]
13.1	Cc1nnc(-c2c(CCc3ccc(F)cc3)nc3c(c2-c2cc4ccnc(NCc5ccc(F)c(F)c5)c4s2)C(=O)N2CCCC32O)o1 (stereo not shown) [Compound 53]
27.8	Cc1nnc(-c2c(CCC3CCOCC3)nc3c(c2-c2cc4ccnc(N[C@@H]5CCc6cc(F)ccc65)c4s2)C(=O)N2CCC[C@@H]32)o1 [Compound 71]
